Reference: patent EP4603105A1, “PHARMACEUTICAL COMPOSITION CONTAINING CYCLIC COMPOUND HAVING SELECTIVE KRAS INHIBITORY EFFECT AGAINST HRAS AND NRAS” (CHUGAI SEIYAKU KABUSHIKI KAISHA, priority 2022, dated 2024)
*1 amine or outer side, *2 acyl side, *3 side chain or, on linkers, in order; H or OH if unused. Where a SMILES comes first, the peptide text is derived from it. Bridges are numbered along the chain shown (N, C = ends). [ ]: non-standard residue; d: D form. The star is where a group is joined. hPhe(3,5-F2-4-CF3) = N[C@@H](CCc1cc(F)c(C(F)(F)F)c(F)c1)C(=O)O; hPhe(3-Cl-4-CF3) = N[C@@H](CCc1ccc(C(F)(F)F)c(Cl)c1)C(=O)O; NPrPhe(4-CF3) = CCCN[C@@H](Cc1ccc(C(F)(F)F)cc1)C(=O)O; NPrPhe(4-Me) = CCCN[C@@H](Cc1ccc(C)cc1)C(=O)O; X16 = O=C([C@@H](N[*:1])C1CC(F)(F)C1)[*:2]; NMeGly(cPent) = CN[C@H](C(=O)O)C1CCCC1; Gly(cPent) = N[C@H](C(=O)O)C1CCCC1; NMeD = CN[C@@H](CC(=O)O)C(=O)O; NMeL = CN[C@@H](CC(C)C)C(=O)O; Morpholide = C1CN(*)CCO1; NMeA = CN[C@@H](C)C(=O)O; Ac5c = NC1(C(=O)O)CCCC1; Aze = O=C(O)[C@@H]1CCN1; Sar = CNCC(=O)O

Experiments:
[1] = tested on: human lung cancer strain NCI-H441; type: cell-based
Summary of the method: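 Readout: […] after the ATP-based reagent. Compound: serial dilutions in dimethyl sulfoxide.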

HRAS wild-type protein = HRAS wild-type protein (Homo sapiens, UniProt P01112); test: Binding to HRAS by surface plasmon resonance (SPR), KD and KD ratio to KRAS
Chain of HRAS wild-type protein (P01112 whole entry): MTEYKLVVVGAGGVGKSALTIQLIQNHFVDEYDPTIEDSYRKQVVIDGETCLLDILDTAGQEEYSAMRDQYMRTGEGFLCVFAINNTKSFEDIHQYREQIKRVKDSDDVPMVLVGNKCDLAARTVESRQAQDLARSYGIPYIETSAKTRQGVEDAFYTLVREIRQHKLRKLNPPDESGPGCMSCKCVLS
Summary of the method: (§1)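 Affinity is measured by surface plasmon resonance at 30°C against captured, GDP-loaded RAS carrying a biotinylated Avi tag. Compounds are titrated by single-cycle kinetics, and KD comes from a 1:1 fit.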

[2] = molecular target: GDP-bound NRAS wild-type protein (Homo sapiens, UniProt P01111); test: Binding to NRAS by surface plasmon resonance (SPR), KD and KD ratio to KRAS
Chain of GDP-bound NRAS wild-type protein (P01111 whole entry): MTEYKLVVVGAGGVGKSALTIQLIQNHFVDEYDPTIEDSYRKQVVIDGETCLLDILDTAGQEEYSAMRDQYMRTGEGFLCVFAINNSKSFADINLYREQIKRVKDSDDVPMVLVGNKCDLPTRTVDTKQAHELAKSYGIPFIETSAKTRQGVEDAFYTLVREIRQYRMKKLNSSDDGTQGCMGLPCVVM
Summary of the method: as §1

[3] = ratio of the KD value with respect to HRAS wild-type protein to the KD value with respect to KRAS
[4] = ratio of the KD value with respect to GDP-bound NRAS wild-type protein to the KD value with respect to KRAS
[5] = ratio of KD for HRAS wild-type protein to KD for KRAS
[6] = ratio of KD for GDP-bound NRAS wild-type protein to KD for KRAS

SMILES	IC50 [1]	HRAS /KRAS (HRAS wild-type protein; [3])	NRAS /KRAS [2, 4]	HRAS /KRAS (HRAS wild-type protein; [5])	NRAS /KRAS [2, 6]	HRAS /KRAS (HRAS wild-type protein; ratio of KD value for HRAS wild-type protein to KD value for KRAS (SPR))	NRAS /KRAS ([2]; ratio of KD value for GDP-bound NRAS wild-type protein to KD value for KRAS (SPR))
CCCN(C)C(=O)[C@@H]1CC(=O)N(C)[C@@H](COCC)C(=O)N[C@@H]([C@@H](C)CC)C(=O)N(C)CC(=O)N(C)[C@H]2C/C=C\CCN(C2=O)[C@@H](Cc2ccc(C(F)(F)F)cc2)C(=O)N(C)CC(=O)N[C@@H](CCc2cc(F)c(C(F)(F)F)c(F)c2)C(=O)N2C[C@H](OCC)C[C@H]2C(=O)NC2(CCC2)C(=O)N(C)[C@@H](C2CCCC2)C(=O)N1C [PP1988]	0.011 µM	A (a compound having 10 or more and less than 20 is denoted as A)	A (a compound having 10 or more and less than 20 is denoted as A)				
CC[C@H](C)[C@@H]1NC(=O)[C@H](CC(C)C)N(C)C(=O)C[C@@H](C(=O)N(C)CC)N(C)C(=O)[C@H](C2CCCC2)N(C)C(=O)C2(CC(C)(C)C2)NC(=O)[C@@H]2C[C@H](C)CN2C(=O)[C@H](CCc2ccc(C(F)(F)F)c(OC)c2)NC(=O)CN(C)C(=O)[C@H](Cc2ccc(C)cc2)N2CC/C=C\C[C@@H](C2=O)N(C)C(=O)CN(C)C1=O [PP1906]	0.0108 µM	A (a compound having 10 or more and less than 20 is denoted as A)	A (a compound having 10 or more and less than 20 is denoted as A)				
CCO[C@@H]1C[C@H]2C(=O)NC3(CCC3)C(=O)N(C)[C@@H](C3CCCC3)C(=O)N(C)[C@H](C(=O)N(C)C)CC(=O)N(C)[C@@H](CC)C(=O)N[C@@H]([C@@H](C)CC)C(=O)N(C)CC(=O)N(C)[C@H]3CCCCCN(C3=O)[C@@H](Cc3ccc(F)cc3C)C(=O)N(C)CC(=O)N[C@@H](CCc3cc(F)c(C(F)(F)F)c(F)c3)C(=O)N2C1 [PP0911]	0.0102 µM			B (a compound having 3 or more and less than 10 is denoted as B)	B (a compound having 3 or more and less than 10 is denoted as B)		
CC[C@H](C)[C@@H]1NC(=O)[C@H](C(C)C)N(C)C(=O)C[C@@H](C(=O)N(C)CC)N(C)C(=O)[C@H](C2CCCC2)N(C)C(=O)C2(CC(C)(C)C2)NC(=O)[C@@H]2C[C@H](C)CN2C(=O)[C@H](CCc2cc(F)c(C(F)(F)F)c(F)c2)NC(=O)CN(C)C(=O)[C@H](Cc2ccc(C(F)(F)F)cc2)N2CC/C=C\C[C@@H](C2=O)N(C)C(=O)CN(C)C1=O [PP1976]	0.092 µM	A (a compound having 10 or more and less than 20 is denoted as A)	AA (a compound having 20 or more is denoted as AA)				
CCO[C@@H]1C[C@H]2C(=O)NC3(CCC3)C(=O)N(C)[C@@H](C3CCCC3)C(=O)N(CC)[C@H](C(=O)N3CCOCC3)CC(=O)N(C)[C@@H](CO)C(=O)N[C@@H]([C@@H](C)CC)C(=O)N(C)CC(=O)N(C)[C@H]3CCCCCN(C3=O)[C@@H](Cc3ccc(C(F)(F)F)cc3)C(=O)N(C)CC(=O)N[C@@H](CCc3cc(F)c(C(F)(F)F)c(F)c3)C(=O)N2C1 [PP0945]	0.987 µM			A (a compound having 10 or more and less than 20 is denoted as A)	B (a compound having 3 or more and less than 10 is denoted as B)		
CCCO[C@@H]1C[C@H]2C(=O)NC3(CC(C)(C)C3)C(=O)N(C)[C@@H](C3CCCC3)C(=O)N(C)[C@H](C(=O)N(C)CC)CC(=O)N(C)[C@H]3CCCc4ccc(cc4)C[C@@H](C(=O)N(C)CC(=O)N[C@@H](CCc4ccc(C(F)(F)F)c(OC)c4)C(=O)N2C1)N1CC/C=C\C[C@@H](C1=O)N(C)C(=O)CN(C1CC1)C(=O)[C@H]([C@@H](C)CC)NC3=O [PP3088]	0.0151 µM			B (a compound having 3 or more and less than 10 is denoted as B)	B (a compound having 3 or more and less than 10 is denoted as B)		
CCCN1C(=O)[C@@H]2CCN2C(=O)[C@H](C)N(C)C(=O)[C@H](C2CCCC2)NC(=O)[C@H](CC(C)C)N(C)C(=O)C[C@@H](C(=O)N2CCOCC2)N(C)C(=O)[C@H](C2CCCC2)N(C)C(=O)C2(CCCC2)NC(=O)[C@@H]2CCCN2C(=O)[C@H](CCc2ccc(C(F)(F)F)c(Cl)c2)NC(=O)CN(C)C(=O)[C@@H]1Cc1ccc(C(F)(F)F)cc1 [PP0272] ([NMeL][Gly(cPent)][NMeA][Aze][NPrPhe(4-CF3)][Sar][hPhe(3-Cl-4-CF3)]P[Ac5c][NMeGly(cPent)][NMeD]-Morpholide; lactam N-11)	0.0037 µM			B (a compound having 3 or more and less than 10 is denoted as B)	C (A compound having a KD ratio of 0.1 or more and less than 3 is denoted as C)		
CCO[C@@H]1C[C@H]2C(=O)NC3(CCCC3)C(=O)N(C)[C@@H](C3CCCC3)C(=O)N(C)[C@H](C(=O)N(C)C)CC(=O)N(C)[C@@H](CC)C(=O)N[C@@H]([C@@H](C)CC)C(=O)N(C)CC(=O)N(C)[C@H]3CC(C)=C(C)CN(C3=O)[C@@H](Cc3ccc(C(F)(F)F)cc3)C(=O)N(C)CC(=O)N[C@@H](CCc3cc(F)c(C(F)(F)F)c(F)c3)C(=O)N2C1 [PP1050]	0.815 µM			C (A compound having a KD ratio of 0.1 or more and less than 3 is denoted as C)	C (A compound having a KD ratio of 0.1 or more and less than 3 is denoted as C)		
CCCO[C@@H]1C[C@H]2C(=O)NC3(CC(C)(C)C3)C(=O)N(C)[C@@H](C3CCCC3)C(=O)N(C)[C@H](C(=O)N(C)C)CC(=O)N(C)[C@H]3CCCCc4ccc(cc4)C[C@@H](C(=O)N(C)CC(=O)N[C@@H](CCc4ccc(C(F)(F)F)c(OC)c4)C(=O)N2C1)N1CC/C=C\C[C@@H](C1=O)N(C)C(=O)CN(C)C(=O)[C@H]([C@@H](C)CC)NC3=O [PP3077]	0.0008 µM			B (a compound having 3 or more and less than 10 is denoted as B)	A (a compound having 10 or more and less than 20 is denoted as A)		
CCCN1C(=O)[C@@H]2CCN2C(=O)CN(C)C(=O)[C@H](C2CC(F)(F)C2)NC(=O)[C@H](CC(C)C)N(C)C(=O)C[C@@H](C(=O)N2CCOCC2)N(C)C(=O)[C@H](C2CCCC2)N(C)C(=O)C2(CCCC2)NC(=O)[C@@H]2CCCN2C(=O)[C@H](CCc2cc(F)c(C(F)(F)F)c(F)c2)NC(=O)CN(C)C(=O)[C@@H]1Cc1ccc(C(F)(F)F)cc1 [PP0787] ([NMeL][X16][Sar][Aze][NPrPhe(4-CF3)][Sar][hPhe(3,5-F2-4-CF3)]P[Ac5c][NMeGly(cPent)][NMeD]-Morpholide; lactam N-11)	0.0383 µM			B (a compound having 3 or more and less than 10 is denoted as B)	C (A compound having a KD ratio of 0.1 or more and less than 3 is denoted as C)		
CCO[C@@H]1C[C@H]2C(=O)NC3(CCC3)C(=O)N(C)[C@@H](C3CCCC3)C(=O)N(C)[C@H](C(=O)N(C)C)CC(=O)N(C)[C@@H](CC)C(=O)N[C@@H]([C@@H](C)CC)C(=O)N3CC[C@H]3C(=O)N(C)[C@H]3C[C@@H](C)CCN(C3=O)[C@@H](Cc3ccc(C(F)(F)F)cc3)C(=O)N(C)CC(=O)N[C@@H](CCc3cc(F)c(C(F)(F)F)c(F)c3)C(=O)N2C1 [PP1021]	0.014 µM			B (a compound having 3 or more and less than 10 is denoted as B)	C (A compound having a KD ratio of 0.1 or more and less than 3 is denoted as C)		
CCO[C@@H]1C[C@H]2C(=O)NC3(CC(C)(C)C3)C(=O)N(C)[C@@H](CC3CCC3)C(=O)N(C)[C@H](C(=O)N(C)C)CC(=O)N(C)[C@@H](COC)C(=O)N[C@@H]([C@@H](C)CC)C(=O)N(C3CC3)CC(=O)N(C)[C@H]3C/C=C\CCN(C3=O)[C@@H](Cc3ccc(C(F)(F)F)cc3)C(=O)N(C)CC(=O)N[C@@H](CCc3ccc(C(F)(F)F)c(OC)c3)C(=O)N2C1 [PP2771]	0.148 µM			A (a compound having 10 or more and less than 20 is denoted as A)	AA (a compound having 20 or more is denoted as AA)		
CCO[C@@H]1C[C@H]2C(=O)NC3(CC(C)(C)C3)C(=O)N(C)[C@@H](C3CCCC3)C(=O)N(C)[C@H](C(=O)N(C)C)CC(=O)N(C)[C@@H](C)C(=O)N[C@@H]([C@@H](C)CC)C(=O)N(C)CC(=O)N(C)[C@H]3C/C=C\CCN(C3=O)[C@@H](Cc3ccc(C(F)(F)F)cc3)C(=O)N(C)CC(=O)N[C@@H](CCc3cc(F)c(C(F)(F)F)c(F)c3)C(=O)N2C1 [PP1641]	0.0046 µM					A (a compound having 10 or more and less than 20 is denoted as A)	A (a compound having 10 or more and less than 20 is denoted as A)
CC[C@H](C)[C@@H]1NC(=O)[C@H](CC(C)C)N(C)C(=O)C[C@@H](C(=O)N(C)C)N(C)C(=O)[C@H](C2CCCC2)N(C)C(=O)C2(CCCC2)NC(=O)[C@@H]2CCCN2C(=O)[C@H](CCc2cc(F)c(C(F)(F)F)c(F)c2)NC(=O)CN(C)C(=O)[C@H](Cc2ccc(C(F)(F)F)cc2)N2CCCC[C@@H](C2=O)N(C)C(=O)CN(C)C1=O [PP0569]	0.0028 µM	B (a compound having 3 or more and less than 10 is denoted as B)	C (A compound having a KD ratio of 0.1 or more and less than 3 is denoted as C)				
CCCN1C(=O)[C@@H]2CCN2C(=O)[C@H](C)N(C)C(=O)[C@H]([C@@H](C)CC)NC(=O)[C@H](CC(C)C)N(C)C(=O)C[C@@H](C(=O)N2CCOCC2)N(C)C(=O)[C@H](C2CCCC2)N(C)C(=O)C2(CCCC2)NC(=O)[C@@H]2CCCN2C(=O)[C@H](CCc2ccc(C(F)(F)F)c(Cl)c2)NC(=O)CN(C)C(=O)[C@@H]1Cc1ccc(C)cc1 [PP0052] ([NMeL]I[NMeA][Aze][NPrPhe(4-Me)][Sar][hPhe(3-Cl-4-CF3)]P[Ac5c][NMeGly(cPent)][NMeD]-Morpholide; lactam N-11)	0.0017 µM			B (a compound having 3 or more and less than 10 is denoted as B)	C (A compound having a KD ratio of 0.1 or more and less than 3 is denoted as C)		
